Tests used:
human A1AR = human A1AR (Homo sapiens (Human), UniProt P30542); assay: Binding assay to the human A1AR ([3H]R-PIA); details: [3H]R-PIA (2.0 nM), CHO cells, Table 2; for inhibition at 10 µM: 1 h, read-out: hA1AR % displ. at 10 μM
Description: (§1) CHO (Chinese hamster ovary) cells expressing the recombinant human ARs (HEK-293 cells were used for the human A2AAR) were cultured in DMEM and F12 (1:1) supplemented with 10% fetal bovine serum, 100 units/ml penicillin, […] streptomycin and 2 μmol/ml glutamine. Cells were harvested by trypsinization. After homogenization and suspension, cells were centrifuged at 500 g for 10 min, and the pellet was re-suspended in 50 mM Tris.HCl buffer (pH 7.4) containing 10 mM MgCl2. The suspension was homogenized with an electric homogenizer for 10 sec, and was then re-centrifuged at 20,000 g for 20 min at 4° C. The resultant pellets were resuspended in buffer in the presence of 3 Units/mL adenosine deaminase, and the suspension was stored at −80° C. until the binding experiments. The protein concentration was measured using the Bradford assay.
(§2) For binding to the human A1AR, [^3H]R-PIA (2 nM) was incubated with membranes (40 μg/tube) from CHO cells stably expressing the human A1AR at 25° C. for 60 min in 50 mM Tris.HCl buffer (pH 7.4; MgCl2, 10 mM) in a total assay volume of 200 μL. Nonspecific binding was determined using 10 μM of N^6-cyclopentyladenosine. For human A2A AR binding, membranes (20 μg/tube) from HEK-293 cells stably expressing the human A2A AR were incubated with 15 nM [^3H]CGS21680 at 25° C. for 60 min in 200 μL of 50 mM Tris.HCl, pH 7.4, containing 10 mM MgCl2. N-5′-ethyluronamidoadenosine (10 μM) was used to define nonspecific binding. Reaction was terminated by filtration with GF/B filters.

human A2A AR = human A2A AR (Homo sapiens (Human), UniProt P29274); assay: Binding assay to the human A2A AR ([3H]CGS21680); details: [3H]CGS 21680 (15 nM), HEK293 cells, Table 2
Chain of human A2A AR (P29274 whole entry): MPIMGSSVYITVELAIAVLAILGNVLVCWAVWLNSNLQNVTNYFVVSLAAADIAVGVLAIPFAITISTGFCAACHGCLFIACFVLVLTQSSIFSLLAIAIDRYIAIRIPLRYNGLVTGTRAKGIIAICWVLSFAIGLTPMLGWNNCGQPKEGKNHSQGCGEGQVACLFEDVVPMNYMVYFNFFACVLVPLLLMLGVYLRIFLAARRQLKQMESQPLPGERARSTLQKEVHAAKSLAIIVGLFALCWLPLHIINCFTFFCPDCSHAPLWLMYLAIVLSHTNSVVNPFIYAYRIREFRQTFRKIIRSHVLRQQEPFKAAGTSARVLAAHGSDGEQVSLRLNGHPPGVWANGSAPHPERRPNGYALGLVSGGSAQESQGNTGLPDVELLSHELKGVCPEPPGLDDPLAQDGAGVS
Description: as §1, §2

hA2BAR = hA2BAR (Homo sapiens (Human), UniProt P29275); assay: Effect on NECA-induced cyclic AMP accumulation at A2B receptor; further: NECA (150 nM)-induced cyclic AMP accumulation; assay type: cell-based; details: read-out: hA2BAR % inhib. at 10 μM
Chain of hA2BAR (P29275 whole entry): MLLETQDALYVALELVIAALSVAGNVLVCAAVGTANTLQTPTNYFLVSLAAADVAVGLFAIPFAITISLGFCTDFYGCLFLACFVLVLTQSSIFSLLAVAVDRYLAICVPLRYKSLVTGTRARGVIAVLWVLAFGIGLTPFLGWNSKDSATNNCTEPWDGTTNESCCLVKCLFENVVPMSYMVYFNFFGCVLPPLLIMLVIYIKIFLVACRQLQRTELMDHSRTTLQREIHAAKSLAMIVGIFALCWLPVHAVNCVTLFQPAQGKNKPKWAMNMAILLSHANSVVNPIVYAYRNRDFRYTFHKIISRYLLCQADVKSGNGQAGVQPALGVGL

human A3AR = human A3AR (Homo sapiens (Human), UniProt P0DMS8); assay: Competitive binding assay to the human A3AR ([125I]I-AB-MECA); details: for inhibition at 10 µM: 1 h, read-out: hA3AR % displ. at 10 μM
Chain of human A3AR (P0DMS8 whole entry): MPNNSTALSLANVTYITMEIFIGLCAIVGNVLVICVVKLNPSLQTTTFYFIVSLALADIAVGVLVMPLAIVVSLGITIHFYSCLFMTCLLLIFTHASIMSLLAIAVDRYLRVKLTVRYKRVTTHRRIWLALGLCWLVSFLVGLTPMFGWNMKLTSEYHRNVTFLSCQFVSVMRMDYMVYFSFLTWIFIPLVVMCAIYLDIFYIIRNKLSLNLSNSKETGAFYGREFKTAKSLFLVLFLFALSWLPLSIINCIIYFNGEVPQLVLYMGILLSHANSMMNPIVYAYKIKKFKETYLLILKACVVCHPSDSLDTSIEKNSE
Description: as §1
Each tube in the competitive binding assay contained 100 μl membrane suspension (20 μg protein), 50 μl [^125I]-AB-MECA (0.5 nM), and 50 μl of increasing concentrations of the test ligands in Tris.HCl buffer (50 mM, pH 8.0) containing 10 mM MgCl2, 1 mM EDTA. Nonspecific binding was determined using 10 μM of 5′-N-ethylcarboxamidoadenosine in the buffer. The mixtures were incubated at 25° C. for 60 min. Binding reactions were terminated by filtration through Whatman GF/B filters under reduced pressure using a MT-24 cell harvester (Brandell, Gaithersburgh, Md., USA). Filters were washed three times with 9 mL ice-cold buffer. Radioactivity was determined in a Beckman 5500B γ-counter.

human A3ARs [1] = target: T1, human A3ARs (Homo sapiens (Human), UniProt P0DMS8); assay: Dissociation kinetics of [125I]I-AB-MECA from human A3ARs; assay type: binding; details: 0.5 h, % decrease of dissociation at 30 min, residual binding of [125I]AB-MECA after 30 min = 100%, Table 2, read-out: hA3AR Ag. Dissociation at 10 μM
T1 sequence (P0DMS8 whole entry): as above
Description: The dissociation of [^125I]I-AB-MECA was measured as follows. Membranes (20 μg) were preincubated at 25° C. with 0.5 nM [^125I]I-AB-MECA, in a total volume of 100 μl of Tris-HCl buffer (50 mM, pH 8.0) containing 10 mM MgCl2, and 1 mM EDTA for 60 min. The dissociation was then initiated by the addition of 3 μM Cl-IB-MECA with or without allosteric modulators. The time course of dissociation of total binding was measured by rapid filtration at appropriate time intervals. Nonspecific binding was measured after 60-min incubation in the presence of 3 μM Cl-IB-MECA. Further assay was as described above.

human A3ARs [2] = target: T1, human A3ARs; assay: Cyclic AMP accumulation assay, efficacy at hA3AR; assay type: cell-based; details: compared to maximal effect by 2-Cl-IB-MECA alone (control = 100%)
Description: Intracellular cyclic AMP levels were measured with a competitive protein binding method (Nordstedt and Fredholm, 1990). CHO cells that expressed recombinant human A3ARs were harvested by trypsinization. After centrifugation and resuspension in medium, cells were plated in 24-well plates in 0.5 ml medium. After 24 hr, the medium was removed and cells were washed three times with 1 ml DMEM, containing 50 mM HEPES, pH 7.4. Cells were then treated with agonists and/or test compounds in the presence of rolipram (10 μM) and adenosine deaminase (3 units/ml). After 45 min forskolin (10 μM) was added to the medium, and incubation was continued an additional 15 min. The reaction was terminated by removing the supernatant, and cells were lysed upon the addition of 200 μL of 0.1 M ice-cold HCl. The cell lysate was resuspended and stored at −20° C. For determination of cyclic AMP production, protein kinase A (PKA) was incubated with [^3H]cyclic AMP (2 nM) in K2HPO4/EDTA buffer (K2HPO4, 150 mM; EDTA, 10 mM), 20 μL of the cell lysate, and 30 μL 0.1 M HCl or 50 μL of cyclic AMP solution (0-16 pmol/200 μL for standard curve). Bound radioactivity was separated by rapid filtration through Whatman GF/C filters and washed once with cold buffer. Bound radioactivity was measured by liquid scintillation spectrometry.

[3] = [125I]I-AB-MECA (0.5 nM), CHO cells, Table 2

Chain of human A1AR (P30542 whole entry): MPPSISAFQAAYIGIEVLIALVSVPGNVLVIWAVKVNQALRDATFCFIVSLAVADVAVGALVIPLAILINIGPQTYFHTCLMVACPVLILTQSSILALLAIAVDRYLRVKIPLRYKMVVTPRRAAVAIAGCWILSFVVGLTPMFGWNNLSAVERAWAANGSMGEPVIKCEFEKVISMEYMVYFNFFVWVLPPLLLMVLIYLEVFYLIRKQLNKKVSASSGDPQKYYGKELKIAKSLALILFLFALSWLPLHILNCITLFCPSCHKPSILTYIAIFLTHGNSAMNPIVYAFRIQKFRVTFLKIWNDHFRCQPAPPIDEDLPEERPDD

SMILES | inhibition at 10 µM (human A1AR) | hA2AAR % displ. at 10 μM (human A2A AR) | inhibition at 10 µM (hA2BAR) | inhibition at 10 µM (human A3AR; [3]) | activity at 10 µM (human A3ARs [1]) | % Increase of efficacy at hA3AR at 10 μM (human A3ARs [2]) | melting point | Ki (human A1AR; read-out: Ki(hA1AR)) | Ki (human A2A AR; read-out: Ki(hA2AAR)) | Ki (human A3AR; [125I]I-AB-MECA (0.5 nM), CHO cells, Table 2, read-out: Ki(hA3AR)) | affinity to orthosteric versus allosteric binding sites (selective affinity) (human A3AR; orthosteric sites of A1, A2A, A2B, A3 receptors vs allosteric site of A3 adenosine receptor)
c1ccc2c(c1)nc(Nc1ccc3cc[nH]c3c1)c1nc(C3CCCC3)[nH]c12 [Compound 39, N-(1H-Indol-6-yl)-2-cyclopentyl-1H-imidazo[4,5-c]quinolin-4-amine] | 70% | 74% | 10.1% | 89% | 126 ± 9% | 125 ± 2% | 260 to 261 °C | – | – | – | –
OCc1cccc(Nc2nc3ccccc3c3[nH]c(C4CCCC4)nc23)c1 [Compound 35, N-(3-Methanol-phenyl)-2-cyclopentyl-1H-imidazo[4,5-c]quinolin-4-amine] | 51% | 49% | -4.1% | 56% | 129 ± 15% | 118 ± 4% | 228 to 230 °C | – | – | – | –
Clc1ccc(Nc2nc3ccccc3c3[nH]c(-c4ccco4)nc23)cc1Cl [Compound 43] | -4% | 70% | 9% | 78% | 98 ± 3% | 95 ± 4% | 135 to 138 °C | – | – | – | –
Clc1ccc(Nc2nc3ccccc3c3[nH]c(C4CCCC4)nc23)cc1Cl [Compound 33, N-(3,4-Dichloro-phenyl)-2-cyclopentyl-1H-imidazo[4,5-c]quinolin-4-amine] | 15% | (0%) | -6.7% | 67% | 144 ± 9% | 141 ± 5% | 114 to 115 °C | > 10 µM | > 10 µM | 4.69 ± 0.97 µM | selective affinity
